Starred links: 1 amine or outer side, 2 acyl side, 3 side chain; linkers in the order of their positions; H or OH if unused. Positions of bridges follow the written chain, without caps; N, C: chain ends. Non-standard residues stand in square brackets, D forms with d. Residues, ends and D or L forms follow the SMILES beside them. ξ: configuration not given here. X2 = C[C@@](CCCCC=[*:3])(N[*:1])C(=O)[*:2]; Leu(4,5-dehydro) = C=C(C)C[C@H](N)C(=O)O; d(tBuAla) = CC(C)(C)C[C@@H](N)C(=O)O; dVal(3-OH) = CC(C)(O)[C@@H](N)C(=O)O; cisHyp = O=C(O)[C@@H]1C[C@H](O)CN1; tBuAla = CC(C)(C)C[C@H](N)C(=O)O; R5 = C=CCCC[C@@](C)(N)C(=O)O; ξP = O=C(O)C1CCCN1
Columns and labels:
[1] = Aggregation / solubility at 1 mM; type: physicochemical; conditions: summary calls it solubility at 1mM
Protocol: (§1) The solubilities of the synthesized compounds were determined experimentally (Supplementary Table 2). Most compounds were highly soluble at a 1 mM concentration; however, some compounds tended to form aggregates. These compounds were excluded from further studies. In addition, we experimentally determined the lipophilicity of each compound, logP(oct/wat)=log(soluteoct/solutewat ), which is the partition coefficient of a compound between aqueous (water) and lipophilic (octanol) phases (Supplementary Table 2).

[2] = target: EB3 interactions with IP3R3-GFP (Homo sapiens, UniProt Q9UPY8); assay: Competitive binding: inhibition of EB3 interaction with IP3R3-GFP in vitro; type: biochemical; conditions: 250 nM
Excerpt: We tested the efficacy of twenty-three compounds in inhibiting EB3 interactions with IP3R3-GFP via an in vitro approach developed by us[12],[13]. […] Guided by NMR studies, we predicted the binding pose of 109 to EB3 via AutoDock Vina[13],[24],[25].

[3] = Lipophilicity of peptides, logP(oct/wat); type: physicochemical
Protocol: as §1
Lipophilicity of peptides. Two separate solutions were obtained: an aqueous phosphate buffer with saturated n-octanol, and an n-octanol solution with saturated phosphate buffer. Peptides were then dissolved and diluted in the phosphate buffer. Different partitions were then made with different n-octanol to water ratio before shaking for an hour at room temperature. The aqueous phase and n-octanol were allowed to equilibrate, and each phase was extracted and analyzed for peptide concentrations. The ratio of peptide concentration in n-octanol to that in water is expressed as log(P).

Sequence of EB3 interactions with IP3R3-GFP (Q9UPY8 whole entry): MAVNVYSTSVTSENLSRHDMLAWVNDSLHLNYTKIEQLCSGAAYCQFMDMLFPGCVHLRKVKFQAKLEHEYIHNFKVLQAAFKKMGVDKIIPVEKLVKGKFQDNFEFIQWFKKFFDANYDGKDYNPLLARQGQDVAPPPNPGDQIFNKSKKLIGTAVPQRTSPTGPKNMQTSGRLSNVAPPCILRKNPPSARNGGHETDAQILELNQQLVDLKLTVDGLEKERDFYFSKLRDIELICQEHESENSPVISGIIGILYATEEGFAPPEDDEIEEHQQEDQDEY

Structure (SMILES) | Aggregation at 1mM [1] | inhibition at 0.25 µM [2] [%] | logD [3]
CC[C@@H](C)[C@H]1NC(=O)[C@H]([C@@H](C)O)NC(=O)C2CCCN2C(=O)[C@@H](CC(C)(C)C)NC(=O)[C@](C)(NC(=O)[C@@H](CCC(=O)O)NC(=O)[C@H](NC(=O)[C@H](N)Cc2ccccc2)[C@H](C)O)CCC/C=C\CCCC[C@@](C)(C(=O)N[C@@H](CCCNC(=N)N)C(=O)O)NC1=O (stereo partly drawn) [compound 028, (4R)-4-((2R,3S)-2-((R)-2-amino-3-phenylpropanamido)-3-hydroxybutanamido)-5-(((3S,6R,9S,19R,22R,Z)-6-((R)-sec-butyl)-9-(((S)-1-carboxy-4-guanidinobutyl)carbamoyl)-3-((R)-1-hydroxyethyl)-9,19-dimethyl-22-neopentyl-1,4,7,20,23-pentaoxo-2,3,4,5,6,7,8,9,10,11,12,13,16,17,18,19,20,21,22,23,25,26,27,27a-tetracosahydro-1H-pyrrolo[1,2-d][1,4,7,10,13]pentaazacyclopentacosin-19-yl)amino)-5-oxopentanoic acid] (H-[dF][dT][dE][R5][d(tBuAla)][ξP]T[dI][X2]R-OH; staple (Z) 4-9) | 1.39 | 45 | -1
C=C(C)C[C@H](NC(=O)[C@H](CCC(=O)O)NC(=O)[C@H](NC(=O)[C@H](N)Cc1ccccc1)C(C)(C)O)C(=O)N1CCC[C@H]1C(=O)N[C@H](C(=O)N[C@H](C(=O)O)[C@@H](C)CC)[C@@H](C)O [compound 036, (S)-4-((R)-2-((R)-2-amino-3-phenylpropanamido)-3-hydroxy-3-methylbutanamido)-5-(((S)-1-((S)-2-(((2S,3R)-1-(((1S,2S)-1-carboxy-2-methylbutyl)amino)-3-hydroxy-1-oxobutan-2-yl)carbamoyl)pyrrolidin-1-yl)-4-methyl-1-oxopent-4-en-2-yl)amino)-5-oxopentanoic acid] (H-[dF][dVal(3-OH)]E[Leu(4,5-dehydro)]PTI-OH) | weak signal | 40 | -0.89
CC[C@H](C)[C@H](NC(=O)[C@@H](NC(=O)[C@@H]1C[C@H](O)CN1C(=O)[C@H](CC(C)(C)C)NC(=O)[C@H](CCC(=O)O)NC(=O)[C@H](NC(=O)[C@@H](N)Cc1ccccc1)C(C)(C)O)[C@@H](C)O)C(=O)O [compound 038, (S)-4-((R)-2-((S)-2-amino-3-phenylpropanamido)-3-hydroxy-3-methylbutanamido)-5-(((S)-1-((2S,4S)-2-(((2S,3R)-1-(((1S,2S)-1-carboxy-2-methylbutyl)amino)-3-hydroxy-1-oxobutan-2-yl)carbamoyl)-4-hydroxypyrrolidin-1-yl)-4,4-dimethyl-1-oxopentan-2-yl)amino)-5-oxopentanoic acid] (H-F[dVal(3-OH)]E[tBuAla][cisHyp]TI-OH) | 0.35 | 36 | -0.19
CC[C@H](C)[C@H](NC(=O)CC(O)CNC(=O)[C@@H]1[C@@H]2CCCC[C@@H]2CN1C(=O)[C@H](CC(C)(C)C)NC(=O)c1cccc(CNC(=O)[C@H](NC(=O)[C@@H](N)Cc2ccccc2)C(C)(C)O)c1)C(=O)O (stereo partly drawn) [compound 041, (4-((1S,3aS,7aR)-2-((S)-2-(3-(((R)-2-((S)-2-amino-3-phenylpropanamido)-3-hydroxy-3-methylbutanamido)methyl)benzamido)-4,4-dimethylpentanoyl)octahydro-1H-isoindole-1-carboxamido)-3-hydroxybutanoyl)-L-isoleucine] | 0.18 | 30 | 0.71
